Data set [1] relates to Tick-borne encephalitis virus. Description: Antiviral activity against Tick-borne encephalitis virus Absettarov infected in PEK cells assessed as inhibition of viral plaque formation after 1 hr by gentian violet staining assay. The class given is functional, cell-based.
The subject of data set [2] is Omsk hemorrhagic fever virus. The data set is described as follows: Antiviral activity against Omsk hemorrhagic fever virus Nikitina infected in PEK cells assessed as inhibition of viral plaque formation after 1 hr by gentian violet staining assay. It is filed as functional, cell-based.
Data set [3] can be described thus: Acute cytotoxicity against PEK cells after 24 hrs by neutral red staining assay. It is filed as cell-based, Sus scrofa. As to conditions: pig.
Data set [4] relates to Powassan virus. The data set is described as follows: Antiviral activity against Powassan virus 24 infected in PEK cells assessed as inhibition of viral plaque formation after 1 hr by gentian violet staining assay. The class given is functional, cell-based. As to conditions: for IC50: Powassan virus, 24, PEK.
Data set [5] is described as follows: Chronic cytotoxicity against PEK cells after 7 days by neutral red staining assay. The class given is cell-based, Sus scrofa. As to conditions: pig.

Molecules are shown by their SMILES. A value given as a limit tells only on which side of the number the result lay.

As to `COc1ccccc1NC(=O)C1=C(C)NC(SCC(=O)Nc2ccc(Br)cc2)=C(C#N)C1c1ccc(C)o1` (racemic), the IC50 (commonly the concentration that inhibits the measured activity by half) in data set [1] is more than 10 µM; in data set [2] it was 3.7 µM; in data set [4] it was more than 10 µM. Also, the inhibition entry in data set [1], in data set [2] and in data set [4] was “Dose-dependent effect” each time. Besides, the CC50 (commonly the concentration that lowers cell viability or growth by half) at 24 h in data set [3] turned out to be 248 µM. Further, in data set [5], the CC50 at 168 h was determined as 34 µM.
Turning to `CC1=C(C(=O)Nc2ccccc2)C(c2cccs2)C(C#N)=C(SCC(=O)c2ccccc2)N1` (racemic), the IC50 in data set [1], in data set [2] and in data set [4] was more than 10 µM each time. Further, the inhibition entry in data set [1], in data set [2] and in data set [4] was “Dose-dependent effect” in each case. The compound also yielded a CC50 at 24 h in data set [3] of more than 250 µM. For the same compound, the CC50 at 168 h in data set [5] came to 17 µM.
As for `COc1ccccc1NC(=O)C1=C(C)NC(SCC(=O)Nc2ccc(C)cc2)=C(C#N)C1c1cccs1` (racemic), the IC50 in data set [1] is more than 10 µM; in data set [2], 5.5 µM; in data set [4] it was more than 10 µM. Moreover, the inhibition result in data set [1], in data set [2] and in data set [4] was “Dose-dependent effect” each time. The compound further displayed a cytotoxic concentration (CC50) at 24 h in data set [3] of more than 250 µM. Further, the half-maximal cytotoxic concentration (CC50) at 168 h in data set [5] is 97 µM.
With `CC1=C(C(=O)Nc2ccc(Cl)cc2)C(c2ccccc2)C(C#N)=C(SCC(=O)Nc2cccc(C)c2)N1` (racemic), the 50% inhibitory concentration (IC50) was 2 µM in data set [1], more than 10 µM in data set [2] and more than 10 µM in data set [4]. Moreover, the inhibition result in data set [1], in data set [2] and in data set [4] was “Dose-dependent effect” each time. The cytotoxic concentration (CC50) at 24 h in data set [3] was more than 250 µM. Moreover, the CC50 at 168 h in data set [5] is 41 µM.
For `CC1=C(C(=O)Nc2ccc(Cl)cc2)C(c2ccccc2)C(C#N)=C(SCC(=O)Nc2ccc(Oc3ccccc3)cc2)N1` (racemic), the IC50 in data set [1] is 2.8 µM; in data set [2], more than 10 µM; in data set [4] it was more than 10 µM. Moreover, the inhibition entry in data set [1], in data set [2] and in data set [4] was “Dose-dependent effect” in each case. The CC50 at 24 h in data set [3] is more than 250 µM. Also, half-maximal cytotoxicity in data set [5] (CC50 at 168 h) was put at 38 µM.
Take `CC1=C(C(=O)Nc2ccc(Cl)cc2)C(c2ccccc2)C(C#N)=C(SCC(=O)Nc2ccc3ccccc3c2)N1` (racemic): the 50% inhibitory concentration (IC50) in data set [1], in data set [2] and in data set [4] was more than 10 µM throughout. The inhibition entry in data set [1], in data set [2] and in data set [4] was “Dose-dependent effect” each time. The same compound registered a half-maximal cytotoxic concentration (CC50) at 24 h in data set [3] of 111 µM. The compound further returned a half-maximal cytotoxic concentration (CC50) at 168 h in data set [5] of 20 µM.
For `COc1ccc(NC(=O)CSC2=C(C#N)C(c3ccccc3F)C(C(=O)Nc3ccccc3C)=C(C)N2)cc1` (racemic), the values for the 50% inhibitory concentration (IC50) in data set [1], in data set [2] and in data set [4] were more than 10 µM, 7.2 µM and more than 10 µM, respectively. In addition, the inhibition entry in data set [1], in data set [2] and in data set [4] was “Dose-dependent effect” in each case. In data set [3], the CC50 at 24 h was more than 250 µM. The compound further had a CC50 at 168 h in data set [5] of 89 µM.
As for `CCc1ccc(NC(=O)CSC2=C(C#N)C(c3ccc(O)c(OC)c3)C(C(=O)Nc3ccccc3)=C(C)N2)cc1` (racemic), the values for the IC50 in data set [1], in data set [2] and in data set [4] were more than 10 µM, 1.8 µM and more than 10 µM, respectively. In addition, the inhibition result in data set [1], in data set [2] and in data set [4] was “Dose-dependent effect” in each case. The CC50 at 24 h in data set [3] came to 114 µM. Moreover, half-maximal cytotoxicity in data set [5] (CC50 at 168 h) was put at 31 µM.
For the compound `COc1ccc(N2CSC3=C(C#N)C(c4ccc(OCc5ccc(Cl)cc5)cc4)CC(=O)N3C2)c(OC)c1` (racemic), the IC50 in data set [1] is 0.07 µM; in data set [2], more than 10 µM; in data set [4], 1.3 µM. In addition, the inhibition result in data set [1], in data set [2] and in data set [4] was “Dose-dependent effect” each time. The compound also registered a CC50 at 24 h in data set [3] of 109 µM. This compound also returned a CC50 at 168 h in data set [5] of 39 µM.
As for `CCOc1ccccc1N1CSC2=C(C#N)C(c3cccc(OCc4ccccc4)c3)CC(=O)N2C1` (racemic), the IC50 in data set [1] was 2.6 µM; in data set [2], more than 10 µM; in data set [4], 2.2 µM. Besides, the inhibition entry in data set [1], in data set [2] and in data set [4] was “Dose-dependent effect” throughout. Also, the half-maximal cytotoxic concentration (CC50) at 24 h in data set [3] is more than 250 µM. Further, in data set [5], the CC50 at 168 h stood at 116 µM.
With `CCc1ccc(N2CSC3=C(C#N)C(c4cccc(OCc5ccccc5)c4)CC(=O)N3C2)cc1` (racemic), the IC50 was more than 10 µM in data set [1], more than 11.9 µM in data set [2] and more than 10 µM in data set [4]. Further, the inhibition entry in data set [1], in data set [2] and in data set [4] was “Dose-dependent effect” throughout. Further, in data set [3], the half-maximal cytotoxic concentration (CC50) at 24 h is more than 250 µM. In data set [5], this compound registered a 50% cytotoxic concentration (CC50) at 168 h of 236 µM.
Consider `CCCCc1ccc(N2CSC3=C(C#N)C(c4ccc(OCc5ccccc5)cc4)CC(=O)N3C2)cc1` (racemic), for which the results for the IC50 in data set [1], in data set [2] and in data set [4] were 1.9 µM, more than 10 µM and more than 10 µM, respectively. In addition, the inhibition result in data set [1], in data set [2] and in data set [4] was “Dose-dependent effect” in each case. Further, in data set [3], the CC50 at 24 h was more than 250 µM. In data set [5], this compound gave a cytotoxic concentration (CC50) at 168 h of 35 µM.
For the compound `COc1ccc(N2CSC3=C(C#N)C(c4ccc(OCc5ccccc5)c(OC)c4)CC(=O)N3C2)cc1` (racemic), the IC50 was 0.09 µM in data set [1], more than 10 µM in data set [2] and more than 10 µM in data set [4]. Moreover, the inhibition entry in data set [1], in data set [2] and in data set [4] was “Dose-dependent effect” each time. Further, the CC50 at 24 h in data set [3] was more than 250 µM. The compound further returned a cytotoxic concentration (CC50) at 168 h in data set [5] of 53 µM.
With `CC1=C(C(=O)Nc2nc3ccccc3s2)C(c2ccco2)C(C#N)=C(SCC(=O)Nc2nc3ccccc3s2)N1` (racemic), the IC50 in data set [1] is more than 10 µM; in data set [2] it was 2.5 µM; in data set [4], more than 10 µM. For the same compound, the inhibition entry in data set [1], in data set [2] and in data set [4] was “Dose-dependent effect” each time. In data set [3], this compound registered a CC50 at 24 h of more than 250 µM. Half-maximal cytotoxicity in data set [5] (CC50 at 168 h) was put at 52 µM.
With `CC1=C(C(=O)Nc2nc3ccccc3s2)C(c2ccco2)C(C#N)=C(SCC(=O)Nc2ccc(C(C)C)cc2)N1` (racemic), the values for the IC50 in data set [1], in data set [2] and in data set [4] were more than 10 µM, 2.5 µM and more than 10 µM, respectively. Further, the inhibition entry in data set [1], in data set [2] and in data set [4] was “Dose-dependent effect” in each case. Further, the 50% cytotoxic concentration (CC50) at 24 h in data set [3] was more than 250 µM. The CC50 at 168 h in data set [5] came to 29 µM.

(Values after ChEMBL document CHEMBL2429750, “Inhibitors of tick-borne flavivirus reproduction from structure-based virtual screening” (ACS Med Chem Lett, 2013).)
